Data as given in article PMC9952391, “The Role of Acetyl Zingerone and Its Derivatives in Inhibiting UV-Induced, Incident, and Delayed Cyclobutane Pyrimidine Dimers” (Antioxidants, 2023).

Key:
[1] = system: human keratinocytes (HaCaT); test: Cell survival assay (Alamar blue), keratinocytes; format: cell-based; settings: 24 h pre-incubation, Supplementary Figure S2
[2] = system: incident CPDs (iCPDs) in NBHF cells; test: iCPD assessment by DNA ELISA after ssUV, NBHF; format: cell-based, human
Excerpt: (§1) For UV exposures, we used a “SOL-UV6 ultraviolet solar simulator” from Newport irradiators. It is equipped with a Xenon arc lamp where the output is varied using the integrated variable attenuator aperture, which provides the ability to vary the output from 10% to 100% of the maximum available solar constants. The output spectrum is flat from 320 nm to 400 nm and no values are below 300 nm. This is abbreviated as “ssUV” for “solar-simulated UV” throughout the text. Various cell types seeded at ~50% confluency, were treated with the AZ and analogs at concentrations mentioned in the data figures for 24–h. Cells at ~80–90% confluency (untreated controls), were washed twice with PBS and exposed to 18 kJ/m^2 of ssUV in minimal amount of PBS (ex. 2 mL PBS in a 60 mm cell culture dish) without any dish lid in place. […] The ssUV apparatus was monitored almost daily using UV meters for any emissions below 300 nm. The dose was decided based upon the 80–90% cell survival post UV exposure. After exposure, one time point was collected immediately to assess iCPDs, whereas more dishes were incubated in cell culture medium, inside the cell culture incubator, for various time points to be collected post UV to assess dCPDs. For dCPD induction, it is important that the cell culture incubator is not opened for at least 30 min (the first time point post UV) to avoid possible interference from the CO2/O2 ratio, which will be altered upon opening the incubator doors. Cells were collected by scraping and washed once with PBS, which was followed by DNA isolation using a Quick DNA miniprep Kit (Cat. D3024, Zymo Research, Irvine, CA, USA). CPDs were assessed using our previously established DNA ELISA protocols. In brief, ELISA was performed using mouse monoclonal Anti-CPD (Cat. CAC-NM-DND-001, Clone TDM-2, CosmoBio, Inc., Carlsbad, CA, USA). Flat-bottom, 96-well plates (Cat. 2801, Thermo Scientific, Waltham, MA, USA) were coated overnight with 50 µL of protamine sulphate (0.005–0.05%, Cat. P3369, Sigma, St. Lois, MO, USA) in distilled water. After washing twice with water, heat-denatured DNA was plated in triplicates from each sample, into the protamine sulphate coated plate wells (50–100 ng/well in 50 µL PBS) and incubated overnight at 37 °C. The plates were washed 5 times with 200 µL of PBST (PBS containing 0.05% Tween-20 Cat. P7949, Sigma), and blocked with 2–4% FBS in PBST (blocking buffer) for 1 h at room temperature (RT). The plates were incubated with 100 µL of a 1:1000 dilution of anti-CPD antibody in blocking buffer, and incubated for 30 min at 37 °C, which was followed by 5 washes in PBST. Next, the plates were incubated with 100 µL of a 1:2000 dilution of Biotin-F(ab’)2 fragment of anti-mouse IgG(H+L) (Cat. B-2763, Life Technologies) in blocking buffer for 30 min at 37 °C. Detection was conducted using 100 µL of a 1:10,000 dilution of Streptavidin HRP (Cat. 434323, Life Technologies) in 2% FBS for 30 min at 37 °C, which was followed by 5 washes. The plates were washed once with citrate phosphate buffer (24.3 mM citric acid monohydrate, J.T. Baker Cat. 0110-01- and 51.4-mM sodium phosphate dibasic, Sigma Cat. S7907, pH 5.0). The o-phenylene diamine dihydrochloride (Cat. P8287-50TAB, Sigma) was used as a HRP substrate at 400 µg/mL in citrate phosphate buffer for 5–10 min. A measure of 50 µL of 2M H2SO4 was used to stop the reaction as soon as the color developed (5–10 min incubation in substrate), and OD was measured at 490 nm using a Synergy-2 multimode microplate reader (BioTek, Winooski, VT, USA).

[3] = system: incident CPDs (iCPDs) in pigmented C57BL/6 melanocytes (Mel-a); test: iCPD assessment by DNA ELISA after ssUV, Mel-a; format: cell-based, mouse
Excerpt: as §1

[4] = system: incident CPDs (iCPDs) in albino C57BL/6 melanocytes (Mel-c); test: iCPD assessment by DNA ELISA after ssUV, Mel-c; format: cell-based, mouse; settings: various doses up to 1 mg/mL, 24 h, Figure 4B
Excerpt: (§2) For UV exposures, we used a “SOL-UV6 ultraviolet solar simulator” from Newport irradiators. It is equipped with a Xenon arc lamp where the output is varied using the integrated variable attenuator aperture, which provides the ability to vary the output from 10% to 100% of the maximum available solar constants. The output spectrum is flat from 320 nm to 400 nm and no values are below 300 nm. This is abbreviated as “ssUV” for “solar-simulated UV” throughout the text. Various cell types seeded at ~50% confluency, were treated with the AZ and analogs at concentrations mentioned in the data figures for 24–h. Cells at ~80–90% confluency (untreated controls), were washed twice with PBS and exposed to 18 kJ/m^2 of ssUV in minimal amount of PBS (ex. 2 mL PBS in a 60 mm cell culture dish) without any dish lid in place. […] The ssUV apparatus was monitored almost daily using UV meters for any emissions below 300 nm. The dose was decided based upon the 80–90% cell survival post UV exposure. After exposure, one time point was collected immediately to assess iCPDs, whereas more dishes were incubated in cell culture medium, inside the cell culture incubator, for various time points to be collected post UV to assess dCPDs. For dCPD induction, it is important that the cell culture incubator is not opened for at least 30 min (the first time point post UV) to avoid possible interference from the CO2/O2 ratio, which will be altered upon opening the incubator doors. Cells were collected by scraping and washed once with PBS, which was followed by DNA isolation using a Quick DNA miniprep Kit (Cat. D3024, Zymo Research, Irvine, CA, USA). CPDs were assessed using our previously established DNA ELISA protocols. In brief, ELISA was performed using mouse monoclonal Anti-CPD (Cat. CAC-NM-DND-001, Clone TDM-2, CosmoBio, Inc., Carlsbad, CA, USA). […] A measure of 50 µL of 2M H2SO4 was used to stop the reaction as soon as the color developed (5–10 min incubation in substrate), and OD was measured at 490 nm using a Synergy-2 multimode microplate reader (BioTek, Winooski, VT, USA).

[5] = system: incident CPDs (iCPDs) in HaCaT cells; test: iCPD assessment by DNA ELISA after ssUV, HaCaT; format: cell-based, human; settings: 250 µg/mL, 24 h preincubation
Excerpt: as §2

[6] = system: delayed (dark) CPDs (dCPDs) in Mel-a cells; test: dCPD assessment by DNA ELISA post ssUV, Mel-a; format: cell-based, mouse; settings: Mel-a, 50 µg/mL, 24–36 h preincubation, 0.5 to 4 h post ssUV, Figure 4C
Excerpt: as §2

[7] = system: melanin in Mel-a cells; test: Melanin amount in melanocytes cultured in varied tyrosine; format: cell-based; settings: 50 µg/mL
Method: The amino acid tyrosine is essential for melanin synthesis, and it is added to the OptiMem medium at a proprietary concentration by ThermoFisher. Assuming this concentration to be “100% tyrosine”, we purchased the “custom-prepared, tyrosine-free” medium from ThermoFisher. This medium lacked tyrosine or its precursors, which include L-tyrosine, L-tyrosine-2Na-2H2O, L-tyrosine-Di-sodium salt, Hypoxanthine, and Sodium Hypoxanthine. Mel-a (pigmented mouse melanocyte) cells were cultured in regular cell culture medium containing 100% tyrosine, and in medium containing 20%, 4%, or 0% of the total tyrosine amount. This was achieved by diluting the regular OptiMem with the one containing no tyrosine (tyrosine-free, 0% tyrosine). […] Since the cells cultured in 0%-tyrosine medium lost their pigment over time (Figure 5) and the cell pellets were almost white or opaque in color, we assumed that the minimal amount of tyrosine from the horse serum used in the cell culture medium was not sufficient for melanin synthesis. To estimate the amount of melanin, 3 × 10^6–5 × 10^6 cells were lysed in 1M sodium hydroxide (NaOH) by heating them at 100 °C for 1–2 h, which was followed by a 10-min spin at 14,000 rpm at room temperature to remove any cell debris. Absorbance of the supernatant was recorded using the supernatant in a 96-well plate in triplicates from each sample, at 460–490 nm. Synthetic melanin (Cat. M0418, Sigma) was dissolved in methanol and used as a positive control to generate standard curves to estimate the melanin amount in cell lysates. The number of cells in each pellet was used as a normalization factor for each experimental condition. In a complementary experiment, cells were first bleached out of melanin completely by culturing them in tyrosine-free medium, followed by 100/20/4/0% tyrosine (not shown) treatment. This seemed to be cytotoxic, comparatively more so in 100% tyrosine, probably owing to the toxicity of the sudden rush of melanin derivatives and the oxidative stress generated during melanin synthesis.

[8] = system: Xpa, Xpc, Mitf, Xrcc1 expression in Mel-a; test: qPCR expression of NER pathway genes, Mel-a; format: cell-based, mouse
Method: (§3) Various cell types were collected 24-h post incubation with 200 µg/mL AZ and MBPD, with and without ssUV exposure. RNA was isolated using a Quick-RNA isolation kit (Cat. R1050, Zymo Research). The cDNA was prepared using a High-Capacity cDNA Reverse Transcription Kit (Cat. 4368814, ThermoFisher Scientific). The gene expression of XPA, XPC, and MITF genes was assessed using the following primers. β-actin was used as an internal control for normalizations and data analyses. F1-R1 and F2-R2 represents two primer pairs which were used in the qPCR experiments.

[9] = system: Xpa, Xpc, Mitf, Xrcc1 expression in Mel-c; test: qPCR expression of NER pathway genes, Mel-c; format: cell-based, mouse; settings: 24 h incubation
Method: as §3

[10] = system: nitrotyrosine / nitric oxide synthase (NOS) activity in Mel-a melanocytes; test: Immunofluorescence for nitrotyrosine (marker of NOS activity); format: cell-based, mouse; settings: 50 µg/mL, 24–36 h
Method: Posttranslational modification nitrotyrosine was used as a marker of nitric oxide synthase (NOS) activity. Melanocytes were cultured on collagen-coated, glass-bottom dishes (cat. P35G-1.5-14-C, MatTek, Ashland, MA, USA). After various treatments, cells were fixed with 4% formaldehyde for 10 min at RT, washed with PBS, and permeabilized with 0.5% Triton-X in PBS for 10 min. After blocking for non-specific antibody binding using 5% goat serum (Cat. 16210064, ThermoFisher Scientific) and 1% globulin free BSA (Cat. 001-000-161, Jackson ImmunoResearch, West Grove, PA, USA) in 0.1% Triton-x in PBS (blocking buffer) for 2 h at room temperature, cells were incubated with 1:1000 dilution of anti-nitrotyrosine antibody (Cat. A-21285, ThermoFisher Scientific) overnight at 4 °C. Detection was conducted using Alexa Fluor 488 Goat Anti-rabbit IgG (Cat. A-11008, Life Technologies). Imaging was performed using a ZEISS Axio Observer microscope. Approximately 5–10 images per condition, with ~70–100 cells per image, were quantitated for nitrotyrosine fluorescence using ImageJ software.

[11] = system: melanocytes; parameters: method as in PMID 31538664; settings: 25 µg/mL; cited from earlier work
[12] = system: MMP-1; parameters: method as in PMID 31465741; settings: in vitro assays; cited from earlier work
[13] = system: MMP-3; parameters: method as in PMID 31465741; settings: in vitro assays; cited from earlier work
[14] = system: MMP-12; parameters: method as in PMID 31465741; settings: in vitro assays; cited from earlier work

What does the source list for `COc1cc(CC(C(C)=O)C(C)=O)ccc1O` [AZ, 3-(4-Hydroxy-3-methoxybenzyl)-pentane-2,4-dione]?
Cytotoxicity at 1000 µg/ml [1]: cytotoxic; Blockade of iCPDs ([2]; 1 mg/mL, 24 h preincubation): ~ 50%; iCPD inhibition across doses ([2]; various doses, Figure 3C / Supplementary Figure S2B): minimal effect; Blockade of iCPDs ([3]; 50 µg/mL, 24-h preincubation, 18 kJ/m^2 ssUV): ~ 30%; iCPD inhibition across doses ([3]; various doses up to 1 mg/mL, 24 h, Figure 4A): blocked iCPD generation in a dose-dependent manner; iCPD inhibition across doses [4]: no significant impact; Blockade of iCPDs [5]: ~ 50%; Inhibition of delayed CPDs (dCPDs) [6]: inhibited dCPD formation almost completely; Impact on melanin ([7]; different tyrosine variations): did not show any impact; Cell death on longer incubation ([7]; 2–3 weeks incubation): 10–15%; NER pathway gene expression post UV exposure ([8]; 200 µg/ml, 24 h, then 18 kJ/m2 ssUV, various time points, relative to UV-induced upregulation): elevated slightly; Gene expression of Xpa, Xpc and Mitf (NER pathway) ([8]; 24 h incubation, no UV, qPCR): upregulated; Gene expression of Xrcc1 ([8]; 24 h incubation, qPCR): remained unaffected; Gene expression of Xrcc1 [9]: remained unaffected; Gene expression of Xpa, Xpc and Mitf (NER pathway) ([9]; no UV): remained unaffected; Amount of nitrotyrosine (NOS activity marker) [10]: reduced the amount of nitrotyrosine; Effect on iCPDs [11]: without any significant effect; Inhibition of delayed or dark CPDs (dCPDs) [11]: inhibition; Inhibition of MMP-1 activity [12]: inhibited; Inhibition of MMP-3 activity [13]: inhibited; Inhibition of MMP-12 activity [14]: inhibited

For `COc1ccc(CC(C(C)=O)C(C)=O)cc1OC` [DMBPD, 3-(3,4-Dimethoxy-benzyl)-pentane-2,4-dione], which “Inhibition of iCPD formation” value ([2]; 50 µg/mL, 24 h preincubation, 18 kJ/m^2 ssUV, Figure 3B) is on record?
Its value is “inhibited iCPD formation to varying extents”.
